As usually defined, the EC50 is the concentration at which the effect is half-maximal. Low values mean greater potency, high ones weaker potency.

The record followed here is patent publication US8697641B2, “4-amino-4-oxobutanoyl peptide cyclic analogues, inhibitors of viral replication” (Achillion Pharmaceuticals, Inc., priority 2008, dated 2014).

The test system of the experiment is Hepatitis C replicon. The experiment in a line: HCV replicon assay (NPT ELISA readout) in Huh-7 replicon-containing cells. The class given is cell-based, Hepatitis C virus. The settings on record: Hepatitis C virus, 72 h; HCV replicon in Huh-7 cells, three days incubation. The method, then:
Compounds claimed herein are tested for the ability to inhibit viral replication of the Hepatitis C replicon in cultured cells in which the HCV replicon construct has been incorporated. The HCV replicon system was described by Bartenschlager, et. al (Science, 285, pp. 110-113 (1999)). The replicon system is predictive of in vivo anti-HCV activity; compounds that are active in humans uniformly evidence activity in the replicon assay.
In this assay HCV replicon containing cells are treated with different concentrations of the test compound to ascertain the ability of the test compound to suppress replication of the HCV replicon. As a positive control, HCV replicon-containing cells are treated with different concentrations of interferon alpha, a known inhibitor of HCV replication. The replicon assay system includes Neomycin Phosphotransferase (NPT) as a component of the replicon itself in order to detect the transcription of replicon gene products in the host cell. Cells in which the HCV replicon is actively replicating have high levels of NPT; the level of NPT is proportional to HCV replication. […] The NPT level of each sample is measured using a captured ELISA.
A protocol for testing compounds for the ability to inhibit viral replication of the Hepatitis C replicon cultured cells in which the replicon construct has been incorporated, follows.
The HCV replicon contains, 5′-3′, the HCV-IRES, the neomycin phosphotransferase (neo) gene, the IRES of encephalomyocarditis virus, which directs translation of HCV sequences NS3 to NS5B, and the 3′-NTR. The sequence of the HCV replicon has been deposited in GenBank (Accession no. AJ242652).
The replicon is transfected into Huh-7 cells using standard methods such as electroporation.
The equipment and materials include, but are not limited to, Huh-7 HCV replicon-containing cells, maintenance media (DMEM (Dulbecco's modified Eagle media) supplemented with 10% FBS, L-glutamine, non-essential amino acids, penicillin (100 units/ml), streptomycin (100 micrograms/ml), and 500 micrograms/ml of Geneticin (G418), screening media (DMEM supplemented with 10% FBS, L-glutamine, non-essential amino acids, penicillin (100 units/ml) and streptomycin (100 micrograms/ml)), 96 well tissue culture plates (flat bottom), 96 well plates (U bottom for drug dilution), Interferon alpha for positive control, fixation reagent (such as methanol:acetone), primary antibody (rabbit anti-NPTII), secondary antibody: Eu-N1 l, and enhancement solution.
The cells are then seeded onto 96-well plates at a density of 6000-7500 cells/100 microliters/well (6-7.5×10^5 cells/10 ml/plate). The plates are then incubated at 37° C. in a 5% CO2 incubator.
HCV replicon-containing cells are rinsed with once PBS once; 2 mls of trypsin are then added. Cells are incubated at 37° C. in a 5% CO2 incubator for 3-5 minutes. 10 mls of complete medium is added to stop the reaction. Cells are blown gently, put into a 15 ml tube, and spun at 1200 rpm for four minutes. The trypsin/medium solution is removed and 5 mls of medium (500 ml DMEM (high glucose)) from BRL catalog #12430-054; 50 mls 10% FBS, 5% Geneticin G418 (50 mg/ml, BRL catalog #10131-035), 5 ml MEM non-essential amino acids (100×BRL #11140-050) and 5 ml pen-strep (BRL #15140-148) is added. The cells and media are mixed carefully
Cells are plated with screening medium (500 ml DMEM (BRL #21063-029), 50 ml FBS (BRL #10082-147) and 5 ml MEM non-essential amino acid (BRL #11140-050) at 6000-7500 fcells/100 μl/well of 96 well plate (6-7.5×10^5 cells/10 ml/plate). Plates are placed into 37° C. 5% CO2 incubator overnight.
The following morning, drugs (test compounds or interferon alpha) are diluted in 96 well U bottom plates with media or DMSO/media, depending on the final concentration chosen for screening. Generally for 6 concentrations of each test compounds ranging from 10 micromolar to 0.03 micromolar are applied. […]

Where only a bound is given, the exact number is not on record here.

The compound `COc1ccc2nc(-c3ccccn3)cc(C(=O)N[C@@H]3C[C@H]4C(=O)N[C@]5(C(=O)NS(=O)(=O)C6CC6)C[C@H]5/C=C\CCCCC[C@H](CC(=O)N5CCC(F)(F)CC5)C(=O)N4C3)c2c1` [Compound 97, (2R,6R,14aR,16aS,Z)-N-(cyclopropylsulfonyl)-6-(2-(4,4-difluoropiperidin-1-yl)-2-oxoethyl)-2-(6-methoxy-2-(pyridin-2-yl)quinoline-4-carboxamido)-5,16-dioxo-1,2,3,5,6,7,8,9,10,11, 13a,14,14a,15,16,16a-hexadecahydrocyclopropa [e]pyrrolo[1,2-a][1,4] diazacyclopentadecine-14a-carboxamide] returned an EC50 of less than 1000 nM. Consider `COc1ccc2c(O[C@@H]3C[C@H]4C(=O)N[C@@]5(C(=O)NS(=O)(=O)C6CC6)C[C@@H]5/C=C\CCCCC[C@H](CC(=O)N5CCCCC5)C(=O)N4C3)cc(-c3ccccc3)nc2c1` [Compound 49, (2R,6R,13aR, 14aS,16aS,Z)-N-(cyclopropylsulfonyl)-2-(7-methoxy-2-phenylquinolin-4-yloxy)-5,16-dioxo-6-(2-oxo-2-(piperidin-1-yl)ethyl)-1,2,3,5,6,7,8,9,10,11, 13a,14,14a,15,16,16a-hexadecahydrocyclopropa [e]pyrrolo[1,2-a][1,4] diazacyclopentadecine-14a-carboxamide], for which the EC50 was 1000 to 10000 nM.

In turn, `COc1ccc2c(O[C@@H]3C[C@H]4C(=O)N[C@]5(C(=O)NS(=O)(=O)C6CC6)C[C@H]5/C=C\CCCCC[C@H](CC(=O)N5[C@H](C)CCC[C@@H]5C)C(=O)N4C3)cc(-c3ccccc3)nc2c1` [Compound 99, (2R,6R,14aR,16aS,Z)-N-(cyclopropylsulfonyl)-6-(2-((2R,6S)-2,6-dimethylpiperidin-1-yl)-2-oxoethyl)-2-(7-methoxy-2-phenylquinolin-4-yloxy)-5,16-dioxo-1,2,3,5,6,7,8,9,10,11, 13a,14,14a,15,16,16a-hexadecahydrocyclopropa [e]pyrrolo[1,2-a][1,4] diazacyclopentadecine-14a-carboxamide] showed an EC50 of less than 1000 nM. The result for `O=C1N[C@]2(C(=O)NS(=O)(=O)C3CC3)C[C@H]2/C=C\CCCCC[C@H](CC(=O)N2CCC(C(F)(F)F)CC2)C(=O)N2C[C@H](Oc3cc(-c4ccccn4)nc4c5c(ccc34)CCC5)C[C@@H]12` [Compound 125, (2R,6R,13aS,16aS,Z)-N-(cyclopropylsulfonyl)-5,16-dioxo-6-(2-oxo-2-(4-(trifluoromethyl)piperidin-1-yl)ethyl)-2-(2-(pyridin-2-yl)-8,9-dihydro-7H-cyclopenta[h]quinolin-4-yloxy)-1,2,3,5,6,7,8,9,10,11, 13a,14,14a,15,16,16a-hexadecahydrocyclopropa [e]pyrrolo[1,2-a][1,4] diazacyclopentadecine-14a-carboxamide] reads less than 1000 nM; that for `O=C1N[C@]2(C(=O)NS(=O)(=O)C3CC3)C[C@H]2/C=C\CCCCC[C@H](CC(=O)N2CCC(F)(F)CC2)C(=O)N2C[C@H](Oc3cc(-c4ccccn4)nc4c5c(ccc34)OCC5)C[C@@H]12` [Compound 82, (2R,6R,14aR,16aS,Z)-N-(cyclopropylsulfonyl)-6-(2-(4,4-difluoropiperidin-1-yl)-2-oxoethyl)-5,16-dioxo-2-(2-(pyridin-2-yl)-8,9-dihydrofuro[2,3-h]quinolin-4-yloxy)-1,2,3,5,6,7,8,9,10,11, 13a,14,14a,15,16,16a-hexadecahydrocyclopropa [e]pyrrolo[1,2-a][1,4] diazacyclopentadecine-14a-carboxamide], less than 1000 nM.

Regarding `COc1ccc2c(O[C@@H]3C[C@H]4C(=O)N[C@]5(C(=O)NS(=O)(=O)C6CC6)C[C@H]5/C=C\CCCCC[C@H](CC(=O)NC(C)(C)C)C(=O)N4C3)cc(-c3ccccc3)nc2c1` [Compound 72, (2R,6R,13aS,14aR, 16aS,Z)-6-(2-(tert-butylamino)-2-oxoethyl)-N-(cyclopropylsulfonyl)-2-(7-methoxy-2-phenylquinolin-4-yloxy)-5,16-dioxo-1,2,3,5,6,7,8,9,10,11, 13a,14,14a,15,16,16a-hexadecahydrocyclopropa [e]pyrrolo[1,2-a][1,4] diazacyclopentadecine-14a-carboxamide], the concentration giving a half-maximal response (EC50) is less than 1000 nM. `COc1ccc2c(O[C@@H]3C[C@H]4C(=O)N[C@]5(C(=O)NS(=O)(=O)C6CC6)C[C@H]5/C=C\CCCCC[C@H](CC(=O)N5CCC(F)(F)C5)C(=O)N4C3)cc(-c3ccccc3)nc2c1` [Compound 63, (2R,6R,13aS, 14aR,16aS,Z)-N-(cyclopropylsulfonyl)-6-(2-(3,3 - difluoropyrrolidin-1-yl)-2-oxoethyl)-2-(7-methoxy-2-phenylquinolin-4-yloxy)-5,16-dioxo-1,2,3,5,6,7,8,9,10,11, 13a,14,14a,15,16,16a-hexadecahydrocyclopropa [e]pyrrolo[1,2-a][1,4] diazacyclopentadecine-14a-carboxamide]: the EC50 is less than 1000 nM. Then `O=C1N[C@]2(C(=O)NS(=O)(=O)C3CC3)CC2/C=C\CCCCC[C@H](CC(=O)N2CCC(C(F)(F)F)CC2)C(=O)N2C[C@H](OC(=O)N3CCc4ccccc4C3)C[C@@H]12` (stereo partly drawn) [Compound 115, (2R,6R,14aR, 16aS,Z)-14a-(cyclopropylsulfonyl-carbamoyl)-5,16-dioxo-6-(2-oxo-2-(4-(trifluoromethyl)piperidin-1-yl)ethyl)-1,2,3,5,6,7,8,9,10,11, 13a,14,14a,15,16,16a-hexadecahydrocyclopropa [e]pyrrolo[1,2-a][1,4] diazacyclopentadecin-2-yl 3,4-dihydroisoquinoline-2(1H)-carboxylate], with less than 1000 nM. In turn, `COc1ccc2c(O[C@@H]3C[C@H]4C(=O)N[C@]5(C(=O)NS(=O)(=O)C6CC6)CC5/C=C\CCCCC[C@H](CC(=O)N5CC[C@@H](CNC(=O)OC(C)(C)C)C5)C(=O)N4C3)cc(-c3ccccc3)nc2c1` (stereo partly drawn) [Compound 103, tert-butyl ((3S)-1-(2-((2R,6R,14aR,16aS,Z)-14a-(cyclopropylsulfonyl-carbamoyl)-2-(7-methoxy-2-phenylquinolin-4-yloxy)-5,16-dioxo-1,2,3,5,6,7,8,9,10,11, 13a,14,14a,15,16,16a-hexadecahydrocyclopropa [e]pyrrolo[1,2-a][1,4]diazacyclopentadecin-6-yl)acetyl)pyrrolidin-3-yl)methylcarbamate] gave a 50% effective concentration (EC50) of less than 1000 nM. Then `COc1ccc2c(O[C@@H]3C[C@H]4C(=O)N[C@]5(C(=O)NS(=O)(=O)C6CC6)C[C@H]5/C=C\CCCCC[C@H](CC(=O)N5CCC(F)(F)CC5)C(=O)N4C3)cc(-c3ccccn3)nc2c1Cl` [Compound 93, (2R,6R,14aR,16aS,Z)-2-(8-chloro-7-methoxy-2-(pyridin-2-yl)quinolin-4-yloxy)-N-(cyclopropylsulfonyl)-6-(2-(4,4-difluoropiperidin-1-yl)-2-oxoethyl)-5,16-dioxo-1,2,3,5,6,7,8,9,10,11, 13a,14,14a,15,16,16a-hexadecahydrocyclopropa [e]pyrrolo[1,2-a][1,4] diazacyclopentadecine-14a-carboxamide], with less than 1000 nM; and `COc1ccc2c(O[C@@H]3C[C@H]4C(=O)N[C@]5(C(=O)NS(=O)(=O)C6CC6)C[C@H]5/C=C\CCCCC[C@H](CC(=O)N5CCOC(C)C5)C(=O)N4C3)cc(-c3ccccc3)nc2c1` (stereo partly drawn) [Compound 75, (2R,6R,13aS, 14aR,16aS,Z)-N-(cyclopropylsulfonyl)-2-(7-methoxy-2-phenylquinolin-4-yloxy)-6-(2-(2-methylmorpholino)-2-oxoethyl)-5,16-dioxo-1,2,3,5,6,7,8,9,10,11, 13a,14,14a,15,16,16a-hexadecahydrocyclopropa [e]pyrrolo[1,2-a][1,4] diazacyclopentadecine-14a-carboxamide], with less than 1000 nM.
